Measured values: patent publication US5135955A, “Propanamine derivatives” (Eli Lilly and Company, priority 1989, dated 1992)
Counter-ions that a name gives are not always drawn.

Tests used:
Aspergillus flavus M152 = experiment: in vitro antifungal activity, Aspergillus flavus (MIC); type: cell-based; settings: 35° C., 48 hours, RPMI 1640 plus 10% fetal calf serum, 95-100% inhibition of growth; for MIC: read-out: minimum inhibitory concentration (MIC), A.f.
Description: (§1) The antifungal activity was assayed in vitro against Candida abicans A26, Trichophyton mentagrophytes CDC27, and Aspergillus flavus M152. The inocula, previously frozen under liquid nitrogen in a lactose, glycerol and water solution, were standardized by counting spores with a hemocytometer. Final concentrations (C. albicans, 1×10^5 cells/m; T. mentagrophytes, 1×10^6 cells/ml; A. flavus, 1×10^5 cells/ml) in RPMI 1640 plus 10% fetal calf serum were added to each of the 96 wells of a microtiter plate (100 μl/well).The compounds to be tested were solubilized in either water or ethanol and added to the microtiter wells in serial dilutions to give final concentrations in the range 0.039-20 μg/ml. The plates were incubated at 35° C. for 48 hours. The minimum inhibitory concentration (MIC) values were determined as the highest dilution showing 95-100% inhibition of growth.
(§2) ^a Minimum inhibitory concentration expressed in μg/ml
^c A.f. means Aspergillus flavus M152

[1] = system: Trichophyton mentagrophytes CDC27; experiment: in vitro antifungal activity, Trichophyton mentagrophytes (MIC); type: cell-based; settings: 35° C., 48 hours, RPMI 1640 plus 10% fetal calf serum, 95-100% inhibition of growth; for MIC: read-out: minimum inhibitory concentration (MIC), T.m.
Description: as §1, §2
^d T.m. means Trichophyton mentagrophytes CDC27

Candida albicans A26 = experiment: in vitro antifungal activity, Candida albicans (MIC); type: cell-based; settings: 35° C., 48 hours, RPMI 1640 plus 10% fetal calf serum, 95-100% inhibition of growth; for MIC: read-out: minimum inhibitory concentration (MIC), C.a.
Description: as §1, §2
^b C.a. means Candida albicans A26

[2] = system: thromboplastin clotting time in human plasma; experiment: prothrombin time test (thromboplastin clotting time in human plasma); type: biochemical; settings: 37° C., human plasma
Description: Briefly, to 0.1 ml of each of human plasma, normal saline and thromboplastin was added 0.03 ml of the test compound of the present invention (2 mg/ml in 50 percent methanol). The clotting time was measured at 37° C. with a Fibrometer.
^a Expressed in seconds
^b Concentration of compound tested in micrograms per milliliter of […]

[3] = 45 micrograms per milliliter of plasma
[4] = 90 micrograms per milliliter of plasma
[5] = 180 micrograms per milliliter of plasma
[6] = 11 micrograms per milliliter of plasma
[7] = 22 micrograms per milliliter of plasma
[8] = 45 micrograms per milliliter of plasma, hydrochloride
[9] = 90 micrograms per milliliter of plasma, hydrochloride

## 4-(2-Butenyloxy)-N,N,α-trimethylbenzenepropanamine hydrochloride [Example 56]
Aspergillus flavus M152
  minimum inhibitory concentration (MIC), A.f.: 5 µg/mL
[1]
  minimum inhibitory concentration (MIC), T.m.: 0.312 µg/mL
Candida albicans A26
  minimum inhibitory concentration (MIC), C.a.: 0.625 µg/mL

## CC(CCc1ccc(OCCC2CCCCC2)cc1)NCCN(C)C (centres unmarked) [Example 46, N'-[3-[4-(2-Cyclohexylethoxy)phenyl]-1-methylpropyl]-N,N-dimethyl-1,2-ethanediamine dihydrochloride]
Aspergillus flavus M152
  MIC: 20 µg/mL
[1]
  MIC: 10 µg/mL
Candida albicans A26
  MIC: 10 µg/mL

## CC(CCc1ccc(OC2CCCC2)cc1)NCCN1CCOCC1 (centres unmarked) [Example 47, N-[3-[4-(Cyclopentyloxy)phenyl]-1-methylpropyl]-4-morpholineethanamine dihydrochloride]
Aspergillus flavus M152
  MIC: 10 µg/mL
[1]
  MIC: 20 µg/mL
Candida albicans A26
  MIC: 10 µg/mL

## CSCCOc1ccc(CCC(C)N(C)C)cc1 (stereo not drawn) [Example 57, 4-(2-Methylthioethoxy)-N,N,α-trimethylbenzenepropanamine hydrochloride]
Aspergillus flavus M152
  MIC: 20 µg/mL
[1]
  MIC: 0.312 µg/mL
Candida albicans A26
  MIC: 1.25 µg/mL

## CC(CCc1ccc(OCCN(C)C)cc1)N(C)C (stereo not drawn) [Example 58, 4-[2-(Dimethylamino)ethoxy]-N,N,α-trimethylbenzenepropylamine dihydrochloride]
Aspergillus flavus M152
  MIC: 20 µg/mL
[1]
  MIC: 10 µg/mL
Candida albicans A26
  MIC: 1.25 µg/mL

## CC(CCc1ccc(OCCCC#N)cc1)N(C)C (centres unmarked) [Example 59, 4-8 4-[3-(Dimethylamino)butyl]phenoxy]butanenitrile hydrochloride]
Aspergillus flavus M152
  MIC: 20 µg/mL
[1]
  MIC: 20 µg/mL
Candida albicans A26
  MIC: 2.5 µg/mL

## CC(CCc1ccc(OCC(=O)C(C)(C)C)cc1)N(C)C (centres unmarked) [Example 60, 3,3-Dimethyl-1-[4-[3-(dimethylamino)-1-butyl]phenoxy]-2-butenone hydrochloride]
Aspergillus flavus M152
  MIC: 10 µg/mL
[1]
  MIC: 0.625 µg/mL
Candida albicans A26
  MIC: 10 µg/mL

## CC(CCc1ccc(OCCn2ccnc2)cc1)N(C)C (stereo not drawn) [Example 61, N,N,α-Trimethyl-4-[2-(1H-imidazol-1-yl)ethoxy]benzenepropanamine]
Aspergillus flavus M152
  MIC: > 20 µg/mL
[1]
  MIC: 10 µg/mL
Candida albicans A26
  MIC: 5 µg/mL

## CC(CCc1ccc(OCCn2cncn2)cc1)N(C)C (stereo not drawn) [Example 62, N,N,α-Trimethyl-4-[2-(1H-1,2,4-triazol-1-yl)ethoxy]benzenepropanamine]
Aspergillus flavus M152
  MIC: 20 µg/mL
[1]
  MIC: 10 µg/mL
Candida albicans A26
  MIC: 10 µg/mL

## CC(CCc1ccc(OCc2cccc(F)c2)cc1)N(C)C (stereo not drawn) [Example 63, N,N,α-Trimethyl-4-[(3-fluorophenyl)methoxy]benzenepropanamine hydrochloride]
Aspergillus flavus M152
  MIC: 5 µg/mL
[1]
  MIC: 1.25 µg/mL
Candida albicans A26
  MIC: 0.625 µg/mL

## CC(CCc1ccc(OCc2ccc(Cl)cc2Cl)cc1)N(C)C (stereo not drawn) [Example 64, N,N,α-Trimethyl-4-(2,4-dichlorophenyl)methoxy]benzenepropanamine hydrochloride]
Aspergillus flavus M152
  MIC: 5 µg/mL
[1]
  MIC: 5 µg/mL
Candida albicans A26
  MIC: 20 µg/mL

## CC(CCc1ccc(OCc2ccc(C(F)(F)F)cc2)cc1)N(C)C (stereo not drawn) [Example 65, N,N,α-Trimethyl-4-[[4-(trifluoromethyl)phenyl]methoxy]-benzenepropanamine hydrochloride]
Aspergillus flavus M152
  MIC: 10 µg/mL
[1]
  MIC: 5 µg/mL
Candida albicans A26
  MIC: 20 µg/mL

## CC(CCc1ccc(OS(=O)(=O)c2ccccc2)cc1)N(C)C (centres unmarked) [Example 66, Benzenesulfonic acid 4-[3-(dimethylamino)butyl]phenylester]
Aspergillus flavus M152
  MIC: 20 µg/mL
[1]
  MIC: 5 µg/mL
Candida albicans A26
  MIC: 10 µg/mL

## CCCS(=O)(=O)Oc1ccc(CCC(C)N(C)C)cc1 (centres unmarked) [Example 67]
Aspergillus flavus M152
  MIC: 20 µg/mL
[1]
  MIC: > 20 µg/mL
Candida albicans A26
  MIC: 20 µg/mL

## CCCCOc1ccc(CCC(C)N(C)CC)cc1 (stereo not drawn) [Example 68, 4-Butoxy-N-ethyl-N,α-dimethylbenzenepropanamine hydrochloride]
Aspergillus flavus M152
  MIC: 0.625 µg/mL
[1]
  MIC: 1.25 µg/mL
Candida albicans A26
  MIC: 0.625 µg/mL

## CCCCOc1ccc(CCC(C)N2CC(C)OC(C)C2)cc1 (centres unmarked) [Example 69, 4-[3-(4-Butoxyphenyl)-1-methylpropyl]-2,6-dimethylmorpholine hydrochloride]
Aspergillus flavus M152
  MIC: > 20 µg/mL
[1]
  MIC: 1.25 µg/mL
Candida albicans A26
  MIC: > 20 µg/mL

## CCCCOc1ccc(CCC(CC)N(C)C)cc1 (stereo not drawn) [Example 70, 4-Butoxy-α-ethyl-N,N-dimethylbenzenepropanamine hydrochloride]
Aspergillus flavus M152
  MIC: 10 µg/mL
[1]
  MIC: 0.156 µg/mL
Candida albicans A26
  MIC: 0.156 µg/mL

## COc1ccc(CC(c2ccccc2)C(C)N)cc1OCC1CCCCC1 (stereo not drawn) [Example 71, 3-(Cyclohexylmethoxy)-4-methoxy-α-methyl-β-phenylbenzenepropanamine hydrochloride]
Aspergillus flavus M152
  MIC: 10 µg/mL
[1]
  MIC: 10 µg/mL
Candida albicans A26
  MIC: 20 µg/mL

## CCCCCCOc1ccc(CC(c2ccc(OC)cc2)C(C)N)cc1 (stereo not drawn) [Example 72, 4-(Hexyloxy)-β-4-methoxyphenyl-αmethylbenzenepropanamine hydrochloride]
Aspergillus flavus M152
  MIC: 10 µg/mL
[1]
  MIC: 5 µg/mL
Candida albicans A26
  MIC: 10 µg/mL

## COCCOc1ccc(CCC(C)N(C)C)cc1.Cl (stereo not drawn) [Example 76, 4-(2-Methoxyethoxy)-N,N,α-trimethylbenzenepropanamine hydrochloride]
[2]; [3]
  plasma prothrombin time: 17 s
[2]; [4]
  plasma prothrombin time: 17 s
[2]; [5]
  plasma prothrombin time: 18 s

## CCCCOc1ccc(CCC(C)N2CCCC2)cc1.Cl (centres unmarked) [Example 77, 1-[3-[4-(Butoxy)phenyl]-1-methylpropyl]-pyrrolidine hydrochloride]
[2]; [6]
  plasma prothrombin time: 15 s
[2]; [7]
  plasma prothrombin time: 16 s
[2]; [3]
  plasma prothrombin time: 23 s
[2]; [4]
  plasma prothrombin time: 24 s
[2]; [5]
  plasma prothrombin time: 53 s

## CCCCOc1ccc(CC(C)CN(C)C)cc1.Cl (stereo not drawn) [Example 78, 4-Butoxy-N,N,β-trimethylbenzenepropanamine hydrochloride]
[2]; [3]
  plasma prothrombin time: 23 s
[2]; [4]
  plasma prothrombin time: 31 s
[2]; [5]
  plasma prothrombin time: 67 s

## CC(CCc1ccc(OCCC(C)(C)C)cc1)N(C)C.Cl (stereo not drawn) [Example 79, 4-(3,3-Dimethylbutoxy)-N,N,α-trimethylbenzenepropanamine hydrochloride]
[2]; 11 micrograms per milliliter of plasma, hydrochloride
  plasma prothrombin time: 19 s
[2]; 22 micrograms per milliliter of plasma, hydrochloride
  plasma prothrombin time: 21 s
[2]; [8]
  plasma prothrombin time: 31 s
[2]; [9]
  plasma prothrombin time: 55 s
[2]; [5]
  plasma prothrombin time: 90 s

## CC(CCc1ccc(OCC2CCCC2)cc1)N(C)C (stereo not drawn) [Example 80, 4-Cyclopentylmethoxy-N,N-α-trimethylbenzenepropanamine hydrochloride]
[2]; [6]
  plasma prothrombin time: 17 s
[2]; [7]
  plasma prothrombin time: 19 s
[2]; [8]
  plasma prothrombin time: 24 s
[2]; [9]
  plasma prothrombin time: 43 s
[2]; 180 micrograms per milliliter of plasma, hydrochloride
  plasma prothrombin time: 88 s

## CC(CCc1ccc(OCC2CCCC2)cc1)N(C)C (stereo not drawn) [Example 81, 4-Cyclopentylmethoxy-N,N-α-trimethylbenzenepropanamine]
[2]; [3]
  plasma prothrombin time: 20 s
[2]; [4]
  plasma prothrombin time: 25 s
[2]; [5]
  plasma prothrombin time: 47 s

## CC(CCc1ccc(OCc2ccc(F)cc2)cc1)N(C)C.Cl (stereo not drawn) [Example 82, 4-[(4-Fluorophenyl)methoxy]-N,N,α-trimethylbenzenepropanamine hydrochloride]
[2]; [6]
  plasma prothrombin time: 18 s
[2]; [7]
  plasma prothrombin time: 19 s
[2]; [3]
  plasma prothrombin time: 24 s
[2]; [4]
  plasma prothrombin time: 29 s
[2]; [5]
  plasma prothrombin time: 75 s

## CC(CCc1ccc(C(C)(C)C)cc1)N(C)C.Cl (stereo not drawn) [Example 83, 4-(1,1-Dimethylethyl)-N,N,α-trimethylbenzenepropanamine hydrochloride]
[2]; [3]
  plasma prothrombin time: 21 s
[2]; [4]
  plasma prothrombin time: 26 s
[2]; [5]
  plasma prothrombin time: 37 s
